Data from patent US11612586B2, “Indole regulation of antigen presenting cells” (THE TEXAS A&M UNIVERSITY SYSTEM, priority 2016, dated 2023).

Experiments:
[1] = tested on: aldehyde dehydrogenase (ALDH); test: Aldehyde dehydrogenase activity in BMDCs (Aldefluor); format: cell-based, mouse; settings: indole 1 mM from day 3, Aldefluor
Protocol: FIG. 13A: BMDCs were cultured from day 3 with indole (1 mM), retinoic acid (1 uM), or DMF control were assayed for aldehyde dehydrogenase (ALDH) activity using the Aldefluor commercial kit. The ALDH inhibitor, DEAB reagent, was included to control for background fluorescence. Aldefluor fluorescence as a measure of ALDH activity was analyzed by flow cytometry. Data is reported as percentage of Aldefluor positive DCs (left panel) and corresponding MFI values (right panel). Individual dots represent data from five independent experiments. FIG. 13B: Gene expression of aldh1a2 was assayed by real-time qPCR in day 7 BMDCs cultured with indole from day 3. Gene expression was normalized to 18 s ribosomal RNA. […]
One possible explanation for these observations is that indole promotes retinoic acid availability to the DCs, thus inducing gut homing markers indirectly by providing substrate for a previously identified mechanism. To investigate this possibility, aldehyde dehydrogenase (ALDH) activity was analyzed via flow cytometry using the fluorescent ALDH substrate, Aldefluor. […]
Activity of aldehyde dehydrogenase (ALDH) in individual BMDCs was measured using an Aldefluor staining kit (Stem Cell Technologies) according to the manufacturer's instructions with minor modifications. […] Subsequently, cells were stained with CD11c in cold Aldefluor assay buffer and then analyzed by flow cytometry.

HeLa cells = test: Salmonella invasion of indole-treated HeLa cells (colonization resistance); format: cell-based; settings: host cells treated with indole
TNF = TNF production in BMDCs, intracellular staining, flow cytometry; format: cell-based, mouse
Th1 cells = test: Th1 differentiation in DC-T cell co-culture; format: cell-based, mouse
Protocol: FIGS. 19A-19C graphically illustrate that indole-conditioned DCs inhibit Th1, Th2, and Th17 differentiation. Naïve CD4+CD25-T cells from OT-II TCR transgenic mice were isolated by column purification. Naïve T cells were then co-cultured with OVA323-339 peptide-loaded BMDCs for 72 hours in the presence or absence of lineage-skewing cytokines (described in methods). BMDCs were previously treated with indole, RA, or DMF from day 3. For the last 5 hours of culture, T cells were restimulated with PMA and ionomycin in the presence of Golgiplug, followed by intracellular staining. Cytokine production was determined to assess differentiation of Th1 (FIG. 19A), Th2 (FIG. 19B), and Th17 CD4+T (FIG. 19C) cells. Mean of three independent experiments. * indicates p<0.05 for one-way ANOVA followed by Dunnett's post-test.
FIGS. 20A and 20B graphically illustrate that T cell skewing mediated by indole-conditioned DCs is AhR-independent. BMDCs were differentiated from WT or AhR-KO mice and conditioned with indole, RA, or DMF from day 3. DCs were then loaded with OVA323-339 and co-cultured with naïve CD4+CD25− T cells from OT-II transgenic mice for 72 hours. […] Subsequently, all cultures were stained and analyzed by flow cytometry for Foxp3 to identify Tregs or (B) IFNγ to identify Th1 cells. […]

## c1ccc2[nH]ccc2c1 [Indole, indole]
[1]
  ALDH activity in DCs: does not affect ALDH activity
HeLa cells
  reduction of Salmonella invasion of indole-treated HeLa cells: 70%
TNF; BMDCs exposed to indole from day 3 of 7 day culture, LPS stimulation
  reduction in TNF: 30%
TNF; BMDCs, indole for 18 hours followed by TLR stimulation
  inhibition of TNF production: ~2 fold
Th1 cells; co-culture with DCs conditioned with indole
  development of Th1 lineage: stark inhibition
Th1 cells; indole-conditioned BMDCs from wild-type or AhR-deficient mice
  AhR dependence of inhibition of the Th1 lineage: AhR-independent
